From ChEMBL document CHEMBL1201862, “PubChem BioAssay data set” (2004)
Activity calls are given as the source filed them.

Tests used:
[1] = viability of uninfected HEp-2 cells – cell-based, HTS, cytotoxicity control for RSV inhibitor project, dose response (AID 2410); type: functional; details: human respiratory syncytial virus
[2] = molecular target: T1, Polyadenylate-binding protein 1 (Homo sapiens, UniProt P11940); test: MLLE binding blockers, Cy5 peptide tracer – biochemical, fluorescence polarization, Cy5-PAM2 peptide, secondary, miRNA deadenylation inhibitor project, dose response (AID 602260); type: functional; details: read-out: IC50_Mean
T1 sequence (P11940 whole entry, the tested form may be a part): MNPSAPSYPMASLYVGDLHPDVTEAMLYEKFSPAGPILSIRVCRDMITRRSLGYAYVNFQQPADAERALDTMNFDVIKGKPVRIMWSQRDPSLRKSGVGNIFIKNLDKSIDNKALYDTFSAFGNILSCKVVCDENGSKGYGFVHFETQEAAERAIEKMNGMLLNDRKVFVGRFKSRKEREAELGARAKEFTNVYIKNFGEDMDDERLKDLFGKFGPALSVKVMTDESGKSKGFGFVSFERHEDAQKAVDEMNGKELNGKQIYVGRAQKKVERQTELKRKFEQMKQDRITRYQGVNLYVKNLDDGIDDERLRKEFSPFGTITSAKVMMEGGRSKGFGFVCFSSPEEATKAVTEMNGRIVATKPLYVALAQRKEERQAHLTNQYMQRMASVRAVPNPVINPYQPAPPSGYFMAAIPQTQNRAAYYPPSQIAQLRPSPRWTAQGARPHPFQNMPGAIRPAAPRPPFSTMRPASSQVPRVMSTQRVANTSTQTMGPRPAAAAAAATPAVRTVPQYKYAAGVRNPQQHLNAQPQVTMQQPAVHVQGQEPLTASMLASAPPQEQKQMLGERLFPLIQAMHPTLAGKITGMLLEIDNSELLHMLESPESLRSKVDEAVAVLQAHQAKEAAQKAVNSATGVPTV

[3] = molecular target: T1, Polyadenylate-binding protein 1; test: MLLE domain peptide-binding blockers, IC50 – biochemical, fluorescence polarization, FITC-PAM2 peptide, dose response (AID 602259); type: functional; details: read-out: IC50_Mean
[4] = cells
[5] = molecular target: T2, Tyrosine-protein phosphatase non-receptor type 7 (Homo sapiens, UniProt P35236); test: HePTP tyrosine phosphatase activity blockers – biochemical, absorbance, leukemia target, primary screen (AID 521); type: functional
T2 sequence (P35236 whole entry): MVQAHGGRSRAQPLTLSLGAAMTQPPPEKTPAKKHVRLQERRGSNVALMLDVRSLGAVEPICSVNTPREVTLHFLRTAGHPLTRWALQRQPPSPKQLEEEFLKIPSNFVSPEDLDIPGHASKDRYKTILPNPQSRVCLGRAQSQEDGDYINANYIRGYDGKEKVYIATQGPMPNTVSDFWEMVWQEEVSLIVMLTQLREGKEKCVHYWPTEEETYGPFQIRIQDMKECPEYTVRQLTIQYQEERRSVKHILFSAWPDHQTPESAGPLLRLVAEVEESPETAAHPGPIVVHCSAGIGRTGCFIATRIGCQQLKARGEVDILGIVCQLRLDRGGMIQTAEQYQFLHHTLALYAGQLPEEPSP

[6] = A Cell Based Secondary Assay To Explore Cytotoxicity of Compounds that Sensitize Mycobacterium Tuberculosis to Beta-Lactam Antibiotics.; type: functional
[7] = molecular target: Glyceraldehyde-3-phosphate dehydrogenase (Homo sapiens, UniProt P04406)
Chain of Glyceraldehyde-3-phosphate dehydrogenase (P04406 whole entry): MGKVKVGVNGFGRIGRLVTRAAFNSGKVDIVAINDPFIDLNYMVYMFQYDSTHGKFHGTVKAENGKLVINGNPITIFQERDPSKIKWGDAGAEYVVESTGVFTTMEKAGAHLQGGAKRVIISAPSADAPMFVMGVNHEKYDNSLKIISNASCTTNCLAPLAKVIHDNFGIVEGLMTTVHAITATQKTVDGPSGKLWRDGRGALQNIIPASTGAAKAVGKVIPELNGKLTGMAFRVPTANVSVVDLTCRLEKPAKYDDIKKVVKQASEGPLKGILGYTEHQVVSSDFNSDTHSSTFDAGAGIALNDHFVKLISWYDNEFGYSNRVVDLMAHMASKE

[8] = molecular target: T3, Bcl-2-related protein A1 (Mus musculus, UniProt Q07440); test: small-molecule antagonists of Bfl-1/BH3 interaction – biochemical, TR-FRET, mouse Bfl-1, confirmation (AID 621);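 further: TR-FRET binding of GST-Bfl-1 to FITC-labelled Bid peptide via terbium antibody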
T3 sequence (Q07440 whole entry): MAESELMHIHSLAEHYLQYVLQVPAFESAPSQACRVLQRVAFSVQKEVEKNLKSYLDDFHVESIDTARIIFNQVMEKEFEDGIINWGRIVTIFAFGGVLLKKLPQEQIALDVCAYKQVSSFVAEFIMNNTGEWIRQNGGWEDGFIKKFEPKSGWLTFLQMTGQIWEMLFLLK

[9] = molecular target: T3, Bcl-2-related protein A1; test: Bfl-1 binding inhibitors, SAR follow-up, biochemical, fluorescence polarization (AID 1070)
[10] = molecular target: Ephrin type-A receptor 4 (Mus musculus, UniProt Q03137); test: EphA4 ligand-binding antagonists – biochemical, colorimetric, mouse EphA4, primary screen (AID 689); type: functional
Chain of Ephrin type-A receptor 4 (Q03137 whole entry): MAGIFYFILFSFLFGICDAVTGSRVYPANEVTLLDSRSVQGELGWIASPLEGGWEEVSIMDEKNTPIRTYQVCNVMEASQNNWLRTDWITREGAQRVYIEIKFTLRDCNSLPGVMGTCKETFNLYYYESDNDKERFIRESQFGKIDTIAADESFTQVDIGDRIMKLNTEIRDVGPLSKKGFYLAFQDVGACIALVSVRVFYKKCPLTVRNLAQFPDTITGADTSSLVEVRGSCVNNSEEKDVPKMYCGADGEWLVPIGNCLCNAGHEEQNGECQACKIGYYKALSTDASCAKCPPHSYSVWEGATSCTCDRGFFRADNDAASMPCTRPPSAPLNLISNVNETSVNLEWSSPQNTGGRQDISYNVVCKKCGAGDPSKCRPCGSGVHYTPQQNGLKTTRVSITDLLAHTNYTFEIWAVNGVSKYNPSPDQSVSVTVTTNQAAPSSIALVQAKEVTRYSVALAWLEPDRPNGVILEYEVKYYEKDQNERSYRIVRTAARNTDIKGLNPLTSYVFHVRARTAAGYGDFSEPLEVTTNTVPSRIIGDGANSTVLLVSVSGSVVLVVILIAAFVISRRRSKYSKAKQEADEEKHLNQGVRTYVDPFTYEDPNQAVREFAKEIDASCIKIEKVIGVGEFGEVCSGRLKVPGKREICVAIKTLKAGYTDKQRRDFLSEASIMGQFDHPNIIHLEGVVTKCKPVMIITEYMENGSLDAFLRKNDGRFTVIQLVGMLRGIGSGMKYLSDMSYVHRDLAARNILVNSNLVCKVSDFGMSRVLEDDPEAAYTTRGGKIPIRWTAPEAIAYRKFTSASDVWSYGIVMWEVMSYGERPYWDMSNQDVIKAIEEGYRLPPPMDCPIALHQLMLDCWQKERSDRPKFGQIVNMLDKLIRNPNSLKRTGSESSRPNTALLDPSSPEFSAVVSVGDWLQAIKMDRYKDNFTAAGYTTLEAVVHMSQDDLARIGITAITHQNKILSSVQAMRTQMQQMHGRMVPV

Cc1ccc(C(=O)O)cc1NC(=S)NC(=O)c1ccc(-c2ccc(Cl)cc2)o1
CC50 [1]: 23.2 µM (active)
IC50 [2]: > 66 µM (inactive)
IC50 [3]: > 66 µM (inactive)
IC50 [4]: 22.8 µM (active)

COc1ccc(NC(=O)C2CCCN(S(=O)(=O)c3cccnc3)C2)cc1 (configuration not stated)
IC50 [5]: > 100 µM (not active)

COc1ccc(OC)c(Nc2nc(-c3cccs3)cs2)c1
CC50 [1]: 26.5 µM (active)
CC50 [6]: > 40 µM (active)

Cc1ccc(Cl)cc1N1CCN(C2=C(Cl)C(=O)N(c3ccc(Cl)c(Cl)c3)C2=O)CC1
IC50 [7]: > 100 µM (not active)
IC50 [8]: > 100 µM (not active)
IC50 [9]: > 100 µM (not active)

O=C(c1ccc2c(=O)n(Cc3ccc4c(c3)OCO4)c(=S)[nH]c2c1)N1CCCCC1
IC50 [10]: > 100 µM (not active)

COc1ccc(Cn2c(=O)[nH]c3cc(C(=O)N4CCN(c5ccccc5F)CC4)ccc3c2=O)cc1
CC50 [6]: > 40 µM (active)
